Values joined by “and” are separate entries in the source; they are usually repeats but may differ in a detail not shown here. Identical values can stand only once.
Key:
LdNMT = target: T1, LdNMT (Leishmania donovani, UniProt D0AB09); experiment: NMT enzyme inhibition assay (non-radioactive), L. donovani NMT; assay type: biochemical; details: for LE (ligand efficiency): LE = 1.4(-logLdNMT IC50)/N, N = number of non-H atoms; for IC50: read-out: IC50 LdNMT
T1 sequence (D0AB09 1-421): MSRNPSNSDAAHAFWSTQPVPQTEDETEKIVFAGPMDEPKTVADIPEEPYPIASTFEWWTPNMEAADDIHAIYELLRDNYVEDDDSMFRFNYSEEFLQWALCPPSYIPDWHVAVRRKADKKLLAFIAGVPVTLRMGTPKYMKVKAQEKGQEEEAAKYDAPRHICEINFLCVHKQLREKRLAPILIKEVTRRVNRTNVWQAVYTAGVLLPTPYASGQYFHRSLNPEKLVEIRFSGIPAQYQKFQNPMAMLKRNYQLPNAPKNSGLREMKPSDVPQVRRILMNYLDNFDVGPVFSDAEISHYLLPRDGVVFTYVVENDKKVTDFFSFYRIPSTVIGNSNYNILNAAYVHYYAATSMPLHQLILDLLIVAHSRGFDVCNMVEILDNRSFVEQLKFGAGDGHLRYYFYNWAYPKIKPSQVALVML

HsNMT1 = target: T2, HsNMT1 (Homo sapiens, UniProt P30419); experiment: NMT enzyme inhibition assay (non-radioactive), human NMT; assay type: biochemical; details: for IC50: human NMT isoform 1 (HsNMT1), read-out: IC50 HsNMT; for selectivity factor: LdNMT IC50 versus human enzyme IC50
T2 sequence (P30419 1-496): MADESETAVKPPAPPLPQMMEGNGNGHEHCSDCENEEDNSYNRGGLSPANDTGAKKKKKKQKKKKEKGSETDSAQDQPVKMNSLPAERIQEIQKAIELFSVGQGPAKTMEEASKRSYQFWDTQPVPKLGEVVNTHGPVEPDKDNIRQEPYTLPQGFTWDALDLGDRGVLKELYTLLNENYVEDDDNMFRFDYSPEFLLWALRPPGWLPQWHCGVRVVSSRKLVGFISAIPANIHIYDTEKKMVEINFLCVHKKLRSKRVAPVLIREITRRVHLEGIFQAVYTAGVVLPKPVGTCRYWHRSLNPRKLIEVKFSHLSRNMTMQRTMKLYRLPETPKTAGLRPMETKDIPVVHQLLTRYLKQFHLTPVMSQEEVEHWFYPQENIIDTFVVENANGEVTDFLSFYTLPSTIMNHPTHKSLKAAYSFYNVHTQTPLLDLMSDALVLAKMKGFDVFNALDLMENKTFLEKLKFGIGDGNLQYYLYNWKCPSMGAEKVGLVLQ

LmNMT = LmNMT (Leishmania major, UniProt Q4Q5S8); experiment: biochemical; details: read-out: IC50 LmNMT
LmNMT, sequence (Q4Q5S8 5-421 limits assumed): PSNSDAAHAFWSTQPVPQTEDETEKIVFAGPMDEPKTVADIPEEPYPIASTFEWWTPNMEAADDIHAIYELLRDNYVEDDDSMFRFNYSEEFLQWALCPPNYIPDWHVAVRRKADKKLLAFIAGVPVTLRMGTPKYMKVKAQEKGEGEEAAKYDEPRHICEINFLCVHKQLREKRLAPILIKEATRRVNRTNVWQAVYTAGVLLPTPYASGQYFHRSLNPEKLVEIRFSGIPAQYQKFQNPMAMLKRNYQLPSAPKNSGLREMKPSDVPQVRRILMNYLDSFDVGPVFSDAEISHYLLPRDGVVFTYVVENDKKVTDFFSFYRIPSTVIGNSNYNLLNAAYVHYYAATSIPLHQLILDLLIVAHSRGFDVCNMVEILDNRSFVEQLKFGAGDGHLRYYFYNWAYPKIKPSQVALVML

Compound | LE (ligand efficiency) (LdNMT) | IC50 (LdNMT) | selectivity against HsNMT1 (HsNMT1; LdNMT over HsNMT1) | IC50 (HsNMT1) | IC50 (LmNMT) [nM] | selectivity factor (HsNMT1)
CN1CCC(N(C)c2nc(N(C)CCC#N)c3sccc3n2)CC1 [6KV] | 0.34 | 250 nM and 247 nM | approximately tenfold | 3560 ± 490 nM | 299 ± 89 | –
c1cncc(CCNCc2cccc(-c3cccc(CN4CCc5ncsc5C4)c3)c2)c1 [CWZ] | 0.29 | 900 nM and 914 nM | – | 45000 nM and 45500 nM | 1020 ± 100 | 50
N[C@@H](CC(=O)N1C[C@H](CO)[C@@H](c2ccc(Cl)cc2)C1)Cc1ccc(Cl)cc1 [A6K] | 0.35 | 77 ± 7 nM | – | 5000 nM and 5160 nM | 31 ± 4 | ~80

— PMC4107925, “Diverse modes of binding in structures of Leishmania major N-myristoyltransferase with selective inhibitors” (IUCrJ, 2014)
